Measured values as given in paper PMC7419507, “In vitro Cas9-assisted editing of modular polyketide synthase genes to produce desired natural product derivatives” (Nature Communications, 2020).
Values joined by “and” are separate entries in the source; they are usually repeats but may differ in a detail not shown here. Equal entries are not always repeated.

What was measured:
[1] = Cytotoxicity assay (CellTiter-Glo, 72 h), MESO-1; assay type: cell-based; conditions: human; for viability at 72 h, 9.53674e-05 uM / viability at 72 h, 0.000190735 uM / viability at 72 h, 0.00038147 uM / viability at 72 h, 0.000762939 uM / viability at 72 h, 0.00152588 uM / viability at 72 h, 0.00305176 uM / viability at 72 h, 0.00610352 uM / viability at 72 h, 0.012207 uM / viability at 72 h, 0.0244141 uM / viability at 72 h, 0.0488281 uM / viability at 72 h, 0.0976562 uM / viability at 72 h, 0.195312 uM / viability at 72 h, 0.390625 uM / viability at 72 h, 0.78125 uM / viability at 72 h, 1.5625 uM / viability at 72 h, 3.125 uM / viability at 72 h, 6.25 uM / viability at 72 h, 12.5 uM / viability at 72 h, 25 uM / viability at 72 h, 50 uM: MESO-1 malignant pleural mesothelioma cells, raw replicate data, read-out: MESO1 viability (%); for viability at 72 h, 9.53674e-05 uM: conc 9.53674e-5 uM; for viability at 72 h, 0.000190735 uM: conc 0.000190735 uM; for viability at 72 h, 0.00038147 uM: conc 0.00038147 uM; for viability at 72 h, 0.000762939 uM: conc 0.000762939 uM; for viability at 72 h, 0.00152588 uM: conc 0.00152588 uM; for viability at 72 h, 0.00305176 uM: conc 0.00305176 uM; for viability at 72 h, 0.00610352 uM: conc 0.00610352 uM; for viability at 72 h, 0.012207 uM: conc 0.012207 uM; for viability at 72 h, 0.0244141 uM: conc 0.0244141 uM; for viability at 72 h, 0.0488281 uM: conc 0.0488281 uM; for viability at 72 h, 0.0976562 uM: conc 0.0976562 uM; for viability at 72 h, 0.195312 uM: conc 0.195312 uM; for viability at 72 h, 0.390625 uM: conc 0.390625 uM; for viability at 72 h, 0.78125 uM: conc 0.78125 uM; for viability at 72 h, 1.5625 uM: conc 1.5625 uM; for viability at 72 h, 3.125 uM: conc 3.125 uM; for viability at 72 h, 6.25 uM: conc 6.25 uM; for viability at 72 h, 12.5 uM: conc 12.5 uM; for viability at 72 h, 25 uM: conc 25 uM; for viability at 72 h, 50 uM: conc 50 uM
Description: (§1) Jurkat cells were cultured in RPMI1640 medium supplemented with 10% foetal bovine serum, penicillin (50 U/ml), streptomycin (50 μg/ml), and Glutamax. SKOV-3 cells were cultured in DMEM medium supplemented with 10% fetal bovine serum, penicillin (50 U/ml), and streptomycin (50 μg/ml). MESO-1 cells were cultured in RPMI1640 medium supplemented with 10% fetal bovine serum, penicillin (50 U/ml), and streptomycin (50 μg/ml). All cell lines were seeded in a 384-well plate at a density of 1000 cells/well in 20 μl of media and incubated at 37 °C in a humidified incubator with 5% CO2. After 4 h, 2-fold dilution samples resolved in DMSO were added to the cell culture at the concentration of 0.5% (0.1 μl) and incubated for 72 h. Cell viabilities were measured using a CellTiter-Glo luminescent cell viability assay and EnVision multilabel plate reader.

[2] = tested on: malignant pleural mesothelioma MESO-1 cells; assay: Cytotoxicity assay (CellTiter-Glo, 72 h), MESO-1; assay type: cell-based; conditions: raw replicate data
Description: as §1

COC1CC2CCC(C)C(O)(O2)C(=O)C(=O)N2CCCCC2C(=O)OC(C(C)CC2CCC(O)C(OC)C2)CCC(C)C=C(C)C(O)C(OC)C(=O)C(C)CC(C)C=CC=CC=C1C (stereo not drawn) [Compound 16, 32-desketorapamycin]
viability at 72 h ([1]; MESO-1 cells (malignant pleural mesothelioma), MESO-1 cells, 72 h, read-out: Plateau level of cell viability in the dose-response curve): ~75%
viability at 72 h, 9.53674e-05 uM [1]: 102%
viability at 72 h, 0.000190735 uM [1]: 86.2%
viability at 72 h, 0.00038147 uM [1]: 94.8%
viability at 72 h, 0.000762939 uM [1]: 80.3%
viability at 72 h, 0.00152588 uM [1]: 82.2%
viability at 72 h, 0.00305176 uM [1]: 74.9%
viability at 72 h, 0.00610352 uM [1]: 80.5%
viability at 72 h, 0.012207 uM [1]: 73.8%
viability at 72 h, 0.0244141 uM [1]: 74.4%
viability at 72 h, 0.0488281 uM [1]: 72.5%
viability at 72 h, 0.0976562 uM [1]: 78.4%
viability at 72 h, 0.195312 uM [1]: 68.5%
viability at 72 h, 0.390625 uM [1]: 78.4%
viability at 72 h, 0.78125 uM [1]: 66.1%
viability at 72 h, 1.5625 uM [1]: 73.1%
viability at 72 h, 3.125 uM [1]: 67.9%
viability at 72 h, 6.25 uM [1]: 67.3%
viability at 72 h, 12.5 uM [1]: 59.2%
viability at 72 h, 25 uM [1]: 53.2%
viability at 72 h, 50 uM [1]: 31.7%
MESO1 viability (%) ([2]; conc 9.53674e-5 uM): 98.1% and 96.4%
MESO1 viability (%) ([2]; conc 0.000190735 uM): 91.1% and 98.0%
MESO1 viability (%) ([2]; conc 0.00038147 uM): 95.4% and 92.4%
MESO1 viability (%) ([2]; conc 0.000762939 uM): 78.9% and 75.5%
MESO1 viability (%) ([2]; conc 0.00152588 uM): 89.1% and 81.4%
MESO1 viability (%) ([2]; conc 0.00305176 uM): 75.1% and 66.9%
MESO1 viability (%) ([2]; conc 0.00610352 uM): 75.6% and 76.2%
MESO1 viability (%) ([2]; conc 0.012207 uM): 76.9% and 75.8%
MESO1 viability (%) ([2]; conc 0.0244141 uM): 81.3% and 75.2%
MESO1 viability (%) ([2]; conc 0.0488281 uM): 73.0% and 74.7%
MESO1 viability (%) ([2]; conc 0.0976562 uM): 75.8%
MESO1 viability (%) ([2]; conc 0.195312 uM): 76.9% and 68.9%
MESO1 viability (%) ([2]; conc 0.390625 uM): 78.5%
MESO1 viability (%) ([2]; conc 0.78125 uM): 69.3% and 68.9%
MESO1 viability (%) ([2]; conc 1.5625 uM): 73.6% and 69.8%
MESO1 viability (%) ([2]; conc 3.125 uM): 61.9% and 65.8%
MESO1 viability (%) ([2]; conc 6.25 uM): 68.9% and 66.9%
MESO1 viability (%) ([2]; conc 12.5 uM): 60.8% and 58.2%
MESO1 viability (%) ([2]; conc 25 uM): 49.9% and 47.7%
MESO1 viability (%) ([2]; conc 50 uM): 33.7% and 30.2%

COC1CC2CCC(C)C(O)(O2)C(=O)C(=O)N2CCCCC2C(=O)OC(C(C)CC2CCC(O)C(OC)C2)CC(O)CC(=O)C(C)C=C(C)C(O)CC(=O)C(C)CC(C)C=CC=CC=C1C (stereo not drawn) [Compound 13]
viability at 72 h, 9.53674e-05 uM [1]: 107%
viability at 72 h, 0.000190735 uM [1]: 109%
viability at 72 h, 0.00038147 uM [1]: 103%
viability at 72 h, 0.000762939 uM [1]: 96.5%
viability at 72 h, 0.00152588 uM [1]: 103%
viability at 72 h, 0.00305176 uM [1]: 101%
viability at 72 h, 0.00610352 uM [1]: 108%
viability at 72 h, 0.012207 uM [1]: 101%
viability at 72 h, 0.0244141 uM [1]: 95.9%
viability at 72 h, 0.0488281 uM [1]: 92.5%
viability at 72 h, 0.0976562 uM [1]: 82%
viability at 72 h, 0.195312 uM [1]: 74.6%
viability at 72 h, 0.390625 uM [1]: 77.6%
viability at 72 h, 0.78125 uM [1]: 68.5%
viability at 72 h, 1.5625 uM [1]: 71.4%
viability at 72 h, 3.125 uM [1]: 70.6%
viability at 72 h, 6.25 uM [1]: 68.1%
viability at 72 h, 12.5 uM [1]: 69.4%
viability at 72 h, 25 uM [1]: 61.7%
viability at 72 h, 50 uM [1]: 32.5%
MESO1 viability (%) ([2]; conc 9.53674e-5 uM): 98.4% and 101.6%
MESO1 viability (%) ([2]; conc 0.000190735 uM): 99.7% and 102.2%
MESO1 viability (%) ([2]; conc 0.00038147 uM): 106.9% and 102.5%
MESO1 viability (%) ([2]; conc 0.000762939 uM): 98.2% and 93.2%
MESO1 viability (%) ([2]; conc 0.00152588 uM): 104.8% and 103.9%
MESO1 viability (%) ([2]; conc 0.00305176 uM): 98.6% and 103.9%
MESO1 viability (%) ([2]; conc 0.00610352 uM): 105.0% and 100.2%
MESO1 viability (%) ([2]; conc 0.012207 uM): 91.1%
MESO1 viability (%) ([2]; conc 0.0244141 uM): 101.5% and 98.1%
MESO1 viability (%) ([2]; conc 0.0488281 uM): 89.5% and 85.7%
MESO1 viability (%) ([2]; conc 0.0976562 uM): 82.3% and 85.5%
MESO1 viability (%) ([2]; conc 0.195312 uM): 72.4% and 76.8%
MESO1 viability (%) ([2]; conc 0.390625 uM): 77.4% and 73.9%
MESO1 viability (%) ([2]; conc 0.78125 uM): 67.0% and 66.3%
MESO1 viability (%) ([2]; conc 1.5625 uM): 65.2% and 74.0%
MESO1 viability (%) ([2]; conc 3.125 uM): 66.5% and 63.4%
MESO1 viability (%) ([2]; conc 6.25 uM): 73.7% and 75.2%
MESO1 viability (%) ([2]; conc 12.5 uM): 72.5% and 66.5%
MESO1 viability (%) ([2]; conc 25 uM): 64.3% and 66.3%
MESO1 viability (%) ([2]; conc 50 uM): 29.9% and 28.1%
